# Laboratory results reported in patent US7288552B2, “Piperidine derivatives, process for preparation thereof, and pharmaceutical composition for alzheimer's disease containing the same” (STC NARA Co., Ltd., priority 2001, dated 2007).
# How the values were obtained:
# β-amyloid (1-42) = target: T1, β-amyloid (1-42) (Homo sapiens, UniProt P05067); experiment: Inhibition of β-amyloid (1-42) aggregation (thioflavin T fluorescence); assay type: biochemical; conditions: 5 μM β-amyloid 1-42, 37° C., 26 hours
# T1 construct: β-amyloid (1-42) was a product of American Peptide Co., U.S.A; purchased American Peptide Co., U.S.A
# Source text: Experiment for Measuring Inhibition of β-amyloid Aggregation
# As the materials used for measuring β-amyloid aggregation, β-amyloid (1-42) was a product of American Peptide Co., U.S.A.; and thioflavin T, phosphate buffered saline tablets, and dimethyl sulfoxide (DMSO, 99.5%) were products of Sigma Chemical Co., U.S.A., and high purity reagents were selected for other reagents.
# 3. Experiment for Measuring Inhibition of β-amyloid (1-42) Aggregation
# Fluorescent analysis was used in measuring β-amyloid aggregation. This peptide compound was kept in the deep freezer (−80° C.), and the final concentration used in the mesurement was 5 μM. Compounds that need to be analyzed were dissolved in 99.5% DMSO, and fluorescent substance was prepared by dissolving thioflavin T (5 μM) in 0.01 M sodium phosphate buffer.
# The procedure for aggregation reaction was as follows. To 0.01 M sodium phosphate buffer (92.5 μl) was added fixed concentration of a compound, for measuring purpose, (5 μl) and 5 μM β-amyloid 1-42 (2.5 μl). The resulting mixture was kept at 37° C. for 26 hours to aggregate. 5 μM tioflavin T (2000 μl) was added thereto, and then fluorescent strength was measured with fluorescent spectrometer.
# [1] = target: T2, acetylcholinesterase (Type V-S: from electric eel) (Electrophorus electricus, UniProt O42275); experiment: Measurement of acetylcholinesterase activity (modified Ellman's method); assay type: biochemical; conditions: 0.03 U enzyme, 37° C., 412 nm; read-out: AChE Inhibition (IC50)
# T2 construct: purchased Sigma Chemical Co., U.S.A. Type V-S
# Source text: Experiment for Measuring Acetylcholinesterase Inhibition Effect
# The compounds used for measuring acetylcholinesterase (AChE) activity such as acetylcholinesterase (Type V-S: from electric eel), acetylcholine iodide, 5,5-dithio-bis(2-nitro benzoic acid), and neostigmine bromide, were products of Sigma Chemical Co., U.S.A., and high purity reagents were selected for other reagents.
# 3. Measurement of Acetylcholinesterase Activity
# Modified Ellman's method for measuring enzyme activity was used to meet with the measurement of acetylcholinesterase activity. The enzyme was separated into certain amount, and kept under 80° C. below zero. The final concentration of the enzyme used in the experiment was 0.03 unit concentration. 1000 μM of […] dissolved in 0.1 M sodium phosphate buffer (pH 8.0) was used for substrate. As for dye reagent, 5,5-dithio-bis-(2-nitrobenzoic acid) (39.6 mg) and sodium bicarbonate(15 mg) dissolved in 10 mL sodium phosphate buffer (0.1M, pH 7.0) was used.
# The procedure for the enzyme reaction was as follows. After adding 200 μl DTNB and 100 μl enzyme (0.03 U) to 2 mL sodium phosphate buffer (pH 8.0), the resulting mixture was pre-heated at 37° C. for 10 minutes. To the resulting mixture 200 μl substrate was added, and allowed to react for 3 minutes. The spectrometer of finished reaction was measured at 412 nm wave. IC50 value connected to activity inhibition was measured by quantal-dose response.
# ICR mice = experiment: Acute toxicity test on animals; assay type: in vivo; conditions: 50 mg/kg to 500 mg/kg intraperitoneal, single injection, observed for 10 days
# Experimental: In order for a compound to be comprised in the pharmaceutical composition for treating Alzheimer's disease, it must be nontoxic. […] This test followed the protocol of Korea Food & Drug Administration. […] The compounds used for the test were diluted with wheat germ oil.
# [2] = system: patients with Alzheimer's disease; conditions: cited from earlier work
# T2 sequence (O42275 24-633): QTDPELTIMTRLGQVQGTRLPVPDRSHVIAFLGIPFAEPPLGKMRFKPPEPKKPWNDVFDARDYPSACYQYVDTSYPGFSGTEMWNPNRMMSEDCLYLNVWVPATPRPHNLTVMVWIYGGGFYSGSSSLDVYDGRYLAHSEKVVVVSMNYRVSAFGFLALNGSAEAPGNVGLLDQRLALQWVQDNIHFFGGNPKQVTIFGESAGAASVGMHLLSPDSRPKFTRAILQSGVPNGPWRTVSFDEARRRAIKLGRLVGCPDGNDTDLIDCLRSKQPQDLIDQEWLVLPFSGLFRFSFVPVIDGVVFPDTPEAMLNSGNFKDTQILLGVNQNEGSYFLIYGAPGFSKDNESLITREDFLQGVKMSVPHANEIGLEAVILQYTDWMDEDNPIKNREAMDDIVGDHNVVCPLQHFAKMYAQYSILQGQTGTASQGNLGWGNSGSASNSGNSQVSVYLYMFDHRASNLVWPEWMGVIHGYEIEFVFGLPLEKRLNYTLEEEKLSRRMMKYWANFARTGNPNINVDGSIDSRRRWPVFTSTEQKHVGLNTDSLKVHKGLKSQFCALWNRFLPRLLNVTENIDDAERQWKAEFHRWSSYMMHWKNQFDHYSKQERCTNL
# T1 sequence (P05067 672-713 limits assumed): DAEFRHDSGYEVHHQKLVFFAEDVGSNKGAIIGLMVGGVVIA
SMILES,IC50 (β-amyloid (1-42)) [µM],IC50 [1] [µM],death rate (ICR mice),share of patients with Alzheimer's disease in whom efficacious [2]
"O=C(OCCCCN1CCC(OC(c2ccccc2)c2ccccc2)CC1)c1ccc([N+](=O)[O-])cc1 [Example 1, 4-[4-(benzhydryloxy)piperidino]butyl-4-nitrobenzoate]",53.1,7.2,,
"O=C(OCCCCN1CCC(OC(c2ccccc2)c2ccccc2)CC1)c1ccc(Cl)cc1 [Example 2, 4-[4-(benzhydryloxy)piperidino]butyl-4-chlorobenzoate]",28.2,0.3,no death,
"O=C(OCCCCN1CCC(OC(c2ccccc2)c2ccccc2)CC1)c1ccc(F)cc1 [Example 3, 4-[4-(benzhydryloxy)piperidino]butyl 4-fluorobenzoate]",36.3,0.84,,
"O=C(OCCCCN1CCC(OC(c2ccccc2)c2ccccc2)CC1)c1ccccc1 [Example 4, 4-[4-(benzhydryloxy)piperidino]butyl benzoate]",40.3,1.3,,
"CC(C)(C)c1ccc(C(=O)OCCCCN2CCC(OC(c3ccccc3)c3ccccc3)CC2)cc1 [Example 6, 4-[4-(benzhydryloxy)piperidino]butyl 4-(tert-butyl)benzoate]",,,no death,
"O=C(OCCCCN1CCC(OC(c2ccccc2)c2ccccc2)CC1)c1cccc(F)c1 [Example 8, 4-[4-(benzhydryloxy)piperidino]butyl 3-fluorobenzoate]",33.7,70.7,,
"O=C(Nc1ccc(F)cc1)OCCCCN1CCC(OC(c2ccccc2)c2ccccc2)CC1 [Example 10, 4-[4-(benzhydryloxy)piperidino]butyl N-(4-fluorophenyl)carbamate]",114,2.45,,
"O=C(OCCCCN1CCC(OC(c2ccccc2)c2ccccc2)CC1)c1cccnc1 [Example 11, 4-[4-(benzhydryloxy)piperidino]butyl nitcotinate]",61.2,> 150,,
"O=C(OCCCCN1CCC(OCc2ccccc2)CC1)c1ccc([N+](=O)[O-])cc1 [Example 12, 4-[4-(benzyloxy)piperidino]butyl 4-nitrobenzoate]",,> 100,,
"O=C(OCCCCN1CCC(OCc2ccccc2)CC1)c1ccc(Cl)cc1 [Example 13, 4-[4-(benzyloxy)piperidino]butyl 4-chlorobenzoate]",,> 100,,
"O=C(OCCCCN1CCC(OCc2ccccc2)CC1)c1ccc(F)cc1 [Example 14, 4-[4-(benzyloxy)piperidino]butyl 4-fluorobenzoate]",,> 100,,
"O=C(OCCCCN1CCC(OCc2ccccc2)CC1)c1ccccc1 [Example 15, 4-[4-(benzyloxy)piperidino]butyl benzoate]",,> 100,,
"CC(C)c1ccc(C(=O)OCCCCN2CCC(OCc3ccccc3)CC2)cc1 [Example 16, 4-[4-(benzyloxy)piperidino]butyl 4-isopropylbenzoate]",,14.8,,
"CC(C)(C)c1ccc(C(=O)OCCCCN2CCC(OCc3ccccc3)CC2)cc1 [Example 17, 4-[4-(benzyloxy)piperidino]butyl 4-(tert-butyl)benzoate]",,12.2,,
"O=C(OCCCCN1CCC(OCc2ccccc2)CC1)c1cccc(Cl)c1 [Example 18, 4-[4-(benzyloxy)piperidino]butyl 3-chlorobenzoate]",,> 100,,
"O=C(OCCCCN1CCC(OCc2ccccc2)CC1)c1cccc(F)c1 [Example 19, 4-[4-(benzyloxy)piperidino]butyl 3-fluorobenzoate]",,> 100,,
Nc1c2c(nc3ccccc13)CCCC2 [Tarcrine],,,,about 25%
